ChEMBL document CHEMBL3885881, “DrugMatrix”

Organism: Rattus norvegicus
Test: DrugMatrix - Regimen: Daily Repeat
Assay type: toxicity, organism-based, Sprague-Dawley
Parameters: regimen Daily Repeat, gender Male, age 6-8 weeks
Conditions: in vivo, po, route oral GAVAGE, […]; for ABSOLUTE BASOPHIL / ABSOLUTE EOSINOPHIL / ABSOLUTE LYMPHOCYTE / ABSOLUTE MONOCYTE / ABSOLUTE SEGMENTED NEUTROPHIL / BASOPHIL / EOSINOPHIL / ERYTHROCYTE COUNT / HEMATOCRIT / HEMOGLOBIN / LEUKOCYTE COUNT / LYMPHOCYTE / MEAN CORPUSCULAR HEMOGLOBIN / MEAN CORPUSCULAR HEMOGLOBIN CONCENTRATION / MONOCYTE / NEUTROPHIL / NUCLEATED RED BLOOD CELLS / PLATELET COUNT: tissue Blood; for ALANINE AMINOTRANSFERASE / ALBUMIN / ALKALINE PHOSPHATASE / ASPARTATE AMINOTRANSFERASE / BLOOD UREA NITROGEN / CARBON DIOXIDE / CHLORIDE / CHOLESTEROL / CREATINE PHOSPHOKINASE / CREATININE / GLUCOSE / LACTATE DEHYDROGENASE / LIPASE / PHOSPHORUS / POTASSIUM / SODIUM / TOTAL BILIRUBIN / TOTAL PROTEIN / URIC ACID: tissue Plasma
[1] = 0 mg/kg, 72 h, dose level Control, time 3 day
[2] = 0 mg/kg, 120 h, dose level Control, time 5 day
[3] = 0.2 mg/kg, 72 h, dose level Low, time 3 day

`CCOC(=O)C1=C(COCCN)NC(C)=C(C(=O)OC)C1c1ccccc1Cl` (stereo not given) [AMLODIPINE] was tested, and the “ABSOLUTE BASOPHIL” value [1] was 0 CELLS/uL, the “ABSOLUTE EOSINOPHIL” value [1] was 70.67 CELLS/uL and the “ABSOLUTE LYMPHOCYTE” value [1] was 12761.5 CELLS/uL. The “ABSOLUTE MONOCYTE” value [1] was 214.17 CELLS/uL, the “ABSOLUTE SEGMENTED NEUTROPHIL” value [1] was 987 CELLS/uL and the BASOPHIL [1] was 0%. For the same compound, the EOSINOPHIL [1] was 0.5%, the “ERYTHROCYTE COUNT” value [1] was 5.61 x10E6/uL and the HEMATOCRIT [1] was 35.22%. For the same compound, the HEMOGLOBIN [1] was 13.57 G/DL, the “LEUKOCYTE COUNT” value [1] was 14.03 x10E3/uL and the LYMPHOCYTE [1] was 91%. The “MEAN CORPUSCULAR HEMOGLOBIN” value [1] was 24.25 pg, the “MEAN CORPUSCULAR HEMOGLOBIN CONCENTRATION” value [1] was 38.52 G/DL and the MONOCYTE [1] was 1.5%. The NEUTROPHIL [1] was 7%, the “NUCLEATED RED BLOOD CELLS” value [1] was 0 /100WBC and the “PLATELET COUNT” value [1] was 997.5 x10E3/uL. For the same compound, the “ALANINE AMINOTRANSFERASE” value [1] was 66.5 u/L, the ALBUMIN [1] was 3.98 G/DL and the “ALKALINE PHOSPHATASE” value [1] was 350 u/L. For the same compound, the “ASPARTATE AMINOTRANSFERASE” value [1] was 83.83 u/L, the “BLOOD UREA NITROGEN” value [1] was 12.33 mg/dL and the “CARBON DIOXIDE” value [1] was 30.33 mmol/L. The CHLORIDE [1] was 100 MEQ/L, the CHOLESTEROL [1] was 75 mg/dL and the “CREATINE PHOSPHOKINASE” value [1] was 200 u/L. The CREATININE [1] was 0.17 mg/dL, the GLUCOSE [1] was 170 mg/dL and the “LACTATE DEHYDROGENASE” value [1] was 89.33 u/L. The LIPASE [1] was 10.33 u/L, the PHOSPHORUS [1] was 10.88 mg/dL and the POTASSIUM [1] was 6.13 MEQ/L. The SODIUM [1] was 140.53 MEQ/L, the “TOTAL BILIRUBIN” value [1] was 0.2 mg/dL and the “TOTAL PROTEIN” value [1] was 5.67 G/DL. The “URIC ACID” value [1] was 1.6 mg/dL, the “ABSOLUTE BASOPHIL” value [2] was 0 CELLS/uL and the “ABSOLUTE EOSINOPHIL” value [2] was 0 CELLS/uL. For the same compound, the “ABSOLUTE LYMPHOCYTE” value [2] was 9526.67 CELLS/uL, the “ABSOLUTE MONOCYTE” value [2] was 134.17 CELLS/uL and the “ABSOLUTE SEGMENTED NEUTROPHIL” value [2] was 922.5 CELLS/uL. For the same compound, the BASOPHIL [2] was 0%, the EOSINOPHIL [2] was 0% and the “ERYTHROCYTE COUNT” value [2] was 5.58 x10E6/uL. For the same compound, the HEMATOCRIT [2] was 34.78%, the HEMOGLOBIN [2] was 13.5 G/DL and the “LEUKOCYTE COUNT” value [2] was 10.58 x10E3/uL. For the same compound, the LYMPHOCYTE [2] was 90.17%, the “MEAN CORPUSCULAR HEMOGLOBIN” value [2] was 24.27 pg and the “MEAN CORPUSCULAR HEMOGLOBIN CONCENTRATION” value [2] was 38.82 G/DL. The MONOCYTE [2] was 1.17%, the NEUTROPHIL [2] was 8.67% and the “NUCLEATED RED BLOOD CELLS” value [2] was 0.17 /100WBC. The “PLATELET COUNT” value [2] was 807.17 x10E3/uL, the “ALANINE AMINOTRANSFERASE” value [2] was 66.83 u/L and the ALBUMIN [2] was 3.73 G/DL. The “ALKALINE PHOSPHATASE” value [2] was 286.17 u/L, the “ASPARTATE AMINOTRANSFERASE” value [2] was 142.33 u/L and the “BLOOD UREA NITROGEN” value [2] was 14.67 mg/dL. For the same compound, the “CARBON DIOXIDE” value [2] was 25.5 mmol/L, the CHLORIDE [2] was 89.17 MEQ/L and the CHOLESTEROL [2] was 75.17 mg/dL. For the same compound, the “CREATINE PHOSPHOKINASE” value [2] was 310.67 u/L, the CREATININE [2] was 0.2 mg/dL and the GLUCOSE [2] was 153 mg/dL. For the same compound, the “LACTATE DEHYDROGENASE” value [2] was 1594 u/L, the LIPASE [2] was 14.83 u/L and the PHOSPHORUS [2] was 11.28 mg/dL. For the same compound, the POTASSIUM [2] was 8.46 MEQ/L, the SODIUM [2] was 126.88 MEQ/L and the “TOTAL BILIRUBIN” value [2] was 0.37 mg/dL. The “TOTAL PROTEIN” value [2] was 5.53 G/DL, the “URIC ACID” value [2] was 1.52 mg/dL and the “ABSOLUTE BASOPHIL” value [3] was 0 CELLS/uL. For the same compound, the “ABSOLUTE EOSINOPHIL” value [3] was 0 CELLS/uL, the “ABSOLUTE LYMPHOCYTE” value [3] was 9376 CELLS/uL and the “ABSOLUTE MONOCYTE” value [3] was 215 CELLS/uL. The “ABSOLUTE SEGMENTED NEUTROPHIL” value [3] was 975.67 CELLS/uL, the BASOPHIL [3] was 0% and the EOSINOPHIL [3] was 0%. For the same compound, the “ERYTHROCYTE COUNT” value [3] was 5.44 x10E6/uL, the HEMATOCRIT [3] was 34.4% and the HEMOGLOBIN [3] was 13.67 G/DL. The “LEUKOCYTE COUNT” value [3] was 10.57 x10E3/uL, the LYMPHOCYTE [3] was 88.67% and the “MEAN CORPUSCULAR HEMOGLOBIN” value [3] was 25.13 pg. The “MEAN CORPUSCULAR HEMOGLOBIN CONCENTRATION” value [3] was 39.73 G/DL, the MONOCYTE [3] was 2% and the NEUTROPHIL [3] was 9.33%. The “NUCLEATED RED BLOOD CELLS” value [3] was 0 /100WBC, the “PLATELET COUNT” value [3] was 1115 x10E3/uL and the “ALANINE AMINOTRANSFERASE” value [3] was 74.33 u/L. For the same compound, the ALBUMIN [3] was 4 G/DL, the “ALKALINE PHOSPHATASE” value [3] was 391 u/L and the “ASPARTATE AMINOTRANSFERASE” value [3] was 107.33 u/L. The “BLOOD UREA NITROGEN” value [3] was 11 mg/dL, the “CARBON DIOXIDE” value [3] was 28.67 mmol/L and the CHLORIDE [3] was 100.67 MEQ/L. For the same compound, the CHOLESTEROL [3] was 69.67 mg/dL, the “CREATINE PHOSPHOKINASE” value [3] was 1227 u/L and the CREATININE [3] was 0.14 mg/dL. For the same compound, the GLUCOSE [3] was 178 mg/dL, the “LACTATE DEHYDROGENASE” value [3] was 183 u/L and the LIPASE [3] was 11 u/L. It also gave a PHOSPHORUS [3] of 10.73 mg/dL, a POTASSIUM [3] of 5.94 MEQ/L and an SODIUM [3] of 141 MEQ/L. The “TOTAL BILIRUBIN” value [3] was 0.2 mg/dL and the “TOTAL PROTEIN” value [3] was 5.73 G/DL.
